US20030217389A1, “Novel peptides and methods of use” (priority 2002, published 2003)

Legend:
[1] = system: Tobacco suspension cells; test: Plant cell culture alkalinization assay; assay type: cell-based
Method: Plant Cell Culture Alkalinization Assay: Tobacco suspension cells were maintained in MS media. The media was adjusted to pH 5.6 with KOH. Three ml aliquots of one week old cultures were transferred into 35 ml of media in 125 ml flasks and placed on an orbital shaker at 160 rpm in the dark for growth. Cells were used for assay 3-5 days after transfer (cell density was approximately 0.5 to 1.5×10^6 cells/ml). One ml of cells was aliquoted into each well of 24-well cell culture cluster plates (Costar, number 3527, Corning Incorporated, Corning, N.Y.) and allowed to equilibrate on an orbital shaker at 160 rpm for 1 hr. Aliquots (1 to 10 μl) of fractions to be tested were added to the cells and the increasing pH change of the medium (medium alkalinization) was detected with time using an Orion Model EA940 pH meter with an Orion semi-micro pH electrode (Catalog number 8103BN, Orion, Beverly, Mass.).

[2] = system: liquid tomato cell culture; test: Alkalinization of a liquid tomato cell culture; assay type: cell-based
[3] = system: tomato apical meristems; test: Growth of excised tomato apical meristems in liquid culture; assay type: cell-based, Lycopersicon esculentum; conditions: for growth of isolated tomato apical meristems: 100 nM peptide in liquid media, evaluated on the 16th day, compared with control peptide
Method: Tomato plants (Lycopersicon esculentum cv. Castlemart) were grown in a growth chamber with 17 hours of light (300 μmol m^−2s^−1) per day at 28° C. and seven hour nights at 18° C. Apical meristems were excised from shoot tips of two week old tomato plants. Shoot tips (1-2 cm long) were surface sterilized using 70% ethanol solution for 20-30 seconds, followed by a 20 minute incubation in a 1.5% (v/v) commercial bleach solution. Shoot tips were washed once in sterilized water after the ethanol treatment, and four times after bleaching. Apical meristems (including meristematic tissue, dome, with a leaf primordium) were carefully isolated under a stereoscope.
Isolated meristems were immediately inoculated into a liquid media (MS salts and vitamin mixture powder (Life Technologies) and 20 g/L of sucrose) containing either tomato RALF (100 nM) (SEQ ID NO: 4), or a control peptide (100 nM) that was not capable of stimulating meristem growth. Four meristems were inoculated in a 125 mL Erlenmeyer flask containing 10 mL of media, and flasks were gently shaken at 60 rpm. Sixteen meristems were tested for each treatment in four separate flasks. The liquid media was replaced with fresh media on the 5th, 12th and 14th days of the experiment. The experiment was evaluated and terminated on the 16th day.

Sequence	alkalinization of the medium of the liquid plant cell culture (pH change) [1]	alkalinization of a liquid tomato cell culture [2]	growth of isolated tomato apical meristems [3]	growth of isolated tomato apical meristems ([3]; listed as tomato RALF (SEQ ID NO: 4))	rate of meristem tissue growth in the presence versus the absence of the polypeptide ([3]; experiments of Example 3)
ATKKYISYGALQKNSVPCSRRGASYYNCKPGAQANPYSRGCSAITRCRS (listed as Nicotiana tabacum) [tobacco RALF polypeptide, approximately 5 kDa polypeptide isolated from tobacco leaves]	rapidly induced alkalinization				
ATKKYISYGALQKNSVPCSRRGASYYNCKPGAQANPYTRGCSAITRCRS (listed as Lycopersicon esculentum) [tomato RALF polypeptide (SEQ ID NO: 4), chemically synthesized tomato RALF polypeptide]		induce alkalinization	stimulates the growth	stimulated growth	at least twice as fast
